From ChEMBL document CHEMBL1201862, “PubChem BioAssay data set” (2004)
The source made the active and inactive calls.

Columns and labels:
BJ [1] = assay: cytotoxicity toward BJ-TERT fibroblasts, dose response, cell-based, RAS-independent, luminescence (AID 1933); format: functional; details: Homo sapiens
[2] = biological target: T1, Heat shock factor protein 1 (Mus musculus, UniProt P38532); assay: inhibition of MG132-induced HSE-luciferase signal, confirmation, cell-based, NIH3T3, luminescence, dose retest (AID 2382); format: functional;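 note: NIH3T3 fibroblasts with HSF1-driven luciferase reporter stressed by proteasome inhibitor MG132; luminescence from HSF1-driven luciferase expression after 8 hours of MG132 stress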
T1 sequence (P38532 whole entry): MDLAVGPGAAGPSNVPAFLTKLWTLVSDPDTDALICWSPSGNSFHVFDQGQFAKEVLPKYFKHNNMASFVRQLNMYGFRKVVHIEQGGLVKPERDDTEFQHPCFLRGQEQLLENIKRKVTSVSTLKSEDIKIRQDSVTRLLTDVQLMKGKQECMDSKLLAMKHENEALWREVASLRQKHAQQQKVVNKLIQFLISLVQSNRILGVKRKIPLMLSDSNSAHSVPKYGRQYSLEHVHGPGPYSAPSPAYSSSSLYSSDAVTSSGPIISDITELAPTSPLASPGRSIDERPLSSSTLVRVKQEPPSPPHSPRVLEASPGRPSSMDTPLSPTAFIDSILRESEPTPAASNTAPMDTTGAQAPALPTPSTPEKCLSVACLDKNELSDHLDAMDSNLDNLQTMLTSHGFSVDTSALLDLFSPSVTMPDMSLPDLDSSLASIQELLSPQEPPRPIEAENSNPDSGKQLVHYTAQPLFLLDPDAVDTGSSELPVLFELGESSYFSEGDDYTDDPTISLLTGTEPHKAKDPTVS

BJ [3] = assay: cells; format: functional, cell-based; details: Homo sapiens
[4] = Luminescence Cell-Based Dose Confirmation HTS to Identify Inhibitors of Platelet Dense Granule Release. [Related pubchem assays: 1663 (Primary HTS), 1678 (Summary of Project)]; format: functional
[5] = Luminescence-based counterscreen assay for KLF5 inhibitors: dose response cell-based high throughput screening assay to identify cytotoxic compounds using the IEC-6 intestinal epithelial cell line. [Related pubchem assays: 1700 (Primary screen.), 1834 (Confirmation screen.), 1858 (Summary AID.), 1905 (Counterscreen.)]; format: functional
BJ [6] = assay: cytotoxicity toward BJ-TERT-LT-ST fibroblasts, dose response, cell-based, RAS-independent, luminescence (AID 1935); format: functional; details: Homo sapiens;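 note: BJ fibroblasts immortalized with TERT plus LT and ST oncogenes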
[7] = cytotoxicity toward DRD oncogenic fibroblasts, dose response, cell-based, non-viral oncogenic, luminescence (AID 1934); format: functional; details: Homo sapiens
Jurkat = assay: antigen receptor-induced NF-kB inhibitors, dose response, Jurkat, luciferase reporter, luminescence, B- and T-cell (AID 489004); format: functional, cell-based; details: Homo sapiens;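 note: NF-kB luciferase reporter Jurkat cells stimulated with PMA plus ionomycin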
[8] = cytotoxicity in HEK-293T NF-kB-Luc cells, dose response, cytotoxicity control for B/T-cell NF-kB inhibitor project, cell-based, uHTS hits (AID 489019); format: functional;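 note: IC50 reflects cytotoxicity as loss of cell viability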
BJ [9] = assay: cytotoxicity toward Ras-transformed BJeLR fibroblasts, dose response, cell-based, alamar blue fluorescence, cherrypicked samples (AID 2631); format: functional; details: Homo sapiens;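 note: confirmatory dose-response assay in RAS-dependent BJ fibroblasts engineered with TERT, LT and ST, with cytotoxicity read by fluorescence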
[10] = Shn3 3'UTR reporter inhibitors, dose response, cell-based, Clone20 osteoblasts, firefly luciferase, cherry-picked (AID 624132); format: functional;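 note: firefly luciferase luminescence from reporter carrying the Shn3 3'UTR in osteoblasts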
[11] = HepG2 cell cytotoxicity, dose response, cytotoxicity control for Shn3 inhibitor project, CellTiter-Glo, cherry-picked (AID 624134); format: functional, cell-based
[12] = control 3'UTR Renilla luciferase suppression, dose response, counter-screen for Shn3 inhibitor project, cell-based, Clone20-Shn3RL, cherry-picked (AID 624133); format: functional
Protein skinhead-1 = biological target: T2, Protein skinhead-1 (Caenorhabditis elegans, UniProt P34707); format: functional
T2 sequence (P34707 whole entry): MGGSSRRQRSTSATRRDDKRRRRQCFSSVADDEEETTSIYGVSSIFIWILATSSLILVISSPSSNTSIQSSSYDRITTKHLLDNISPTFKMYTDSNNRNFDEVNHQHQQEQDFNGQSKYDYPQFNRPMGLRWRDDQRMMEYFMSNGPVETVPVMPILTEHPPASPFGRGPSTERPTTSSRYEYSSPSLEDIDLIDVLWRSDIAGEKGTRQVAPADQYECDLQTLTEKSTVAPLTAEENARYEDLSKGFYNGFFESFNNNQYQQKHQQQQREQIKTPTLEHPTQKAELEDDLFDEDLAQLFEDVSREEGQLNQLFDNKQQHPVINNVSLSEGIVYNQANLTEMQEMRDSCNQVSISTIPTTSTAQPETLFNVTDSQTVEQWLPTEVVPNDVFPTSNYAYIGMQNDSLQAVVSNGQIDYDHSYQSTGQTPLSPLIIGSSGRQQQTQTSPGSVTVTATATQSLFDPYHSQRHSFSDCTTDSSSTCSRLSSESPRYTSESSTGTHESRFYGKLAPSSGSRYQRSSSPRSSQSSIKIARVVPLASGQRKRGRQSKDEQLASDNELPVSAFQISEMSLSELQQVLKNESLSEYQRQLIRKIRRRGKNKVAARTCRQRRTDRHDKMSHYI

[13] = A549 cell cytotoxicity, dose response, cytotoxicity control, plate reader, cherry-pick, antagonist series (AID 743412); format: functional, cell-based
[14] = HepG2 cell cytotoxicity, dose response, cytotoxicity control, plate reader, cherry-pick, antagonist series (AID 743416); format: functional, cell-based
[15] = LGR2 antagonists, dose response, cell-based, HEK293, CRE-luciferase reporter, cherry pick, set 2 (AID 743343); format: functional;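 note: transfected cells were stimulated with diluted bursicon conditioned medium after compound addition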
[16] = MC4R antagonists, dose response, counter-screen for LGR2 antagonist project, cell-based, plate reader, cherry pick (AID 743444); format: functional;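 note: transfected HEK 293 cells stimulated with alpha-MSH peptide; potency of inhibitors of the alpha-MSH evoked signal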
[17] = HEK293 cell cytotoxicity, dose response, cytotoxicity control, plate reader, cherry-picked samples (AID 743446); format: functional, cell-based
[18] = biological target: Mitogen-activated protein kinase 10 (Homo sapiens, UniProt P53779); assay: Dose response biochemical screening assay for inhibitors of c-Jun N-Terminal Kinase 3 (JNK3). [Related pubchem assays: 746 ]
A-375 [19] = assay: MITF: Counter assay: A375 proliferation Measured in Cell-Based System Using Plate Reader - 2084-03_Inhibitor_Dose_DryPowder_Activity. [Related pubchem assays (depositor defined):AID488944]; format: functional; details: Homo sapiens
A-375 [20] = assay: A375 melanoma cell viability reduction, dose response, counter-screen for MITF modulator project, cherry-pick samples, set 2 (AID 540335); format: functional, cell-based; details: Homo sapiens

Chain of Mitogen-activated protein kinase 10 (P53779 whole entry): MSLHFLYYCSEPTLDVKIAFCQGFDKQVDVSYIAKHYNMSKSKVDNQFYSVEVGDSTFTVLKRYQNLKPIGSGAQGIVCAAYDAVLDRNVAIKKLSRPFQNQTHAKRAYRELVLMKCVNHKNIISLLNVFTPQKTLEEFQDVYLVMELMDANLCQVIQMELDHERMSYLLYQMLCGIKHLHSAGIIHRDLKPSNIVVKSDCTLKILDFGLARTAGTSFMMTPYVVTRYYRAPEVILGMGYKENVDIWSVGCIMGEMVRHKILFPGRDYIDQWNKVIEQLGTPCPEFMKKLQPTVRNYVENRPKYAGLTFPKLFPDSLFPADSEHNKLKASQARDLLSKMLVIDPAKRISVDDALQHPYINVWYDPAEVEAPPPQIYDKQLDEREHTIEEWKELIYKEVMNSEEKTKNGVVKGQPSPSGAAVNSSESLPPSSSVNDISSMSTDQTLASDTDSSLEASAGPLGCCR

In the case of c1ccc(-c2ccc(-c3nc(-c4ccccn4)no3)cc2)cc1, the EC50 (BJ [1]) is reported as 3.64 µM (active), the EC50 [2] is reported as < 0.16 µM (active) and the EC50 (BJ [3]) is reported as 1.69 µM (active). The EC50 [4] was 0.189 µM (active), the IC50 [5] was 9.09 µM (active) and the EC50 (BJ [6]) was 9.38 µM (inconclusive). For the same compound, the EC50 [7] was 3.27 µM (active), the IC50 (Jurkat) was 1.17 µM (active) and the IC50 [8] was > 80 µM (inactive). For the same compound, the EC50 (BJ [9]) was > 133 µM (inactive), the AC50 [10] was 3.75 µM (active) and the AC50 [11] was 5.26 µM (active). For the same compound, the AC50 [12] was 32.7 µM (active), the IC50 (Protein skinhead-1) was > 100 µM (inactive) and the AC50 [13] was 5.48 µM (active). For the same compound, the AC50 [14] was 4.67 µM (active), the AC50 [15] was 0.236 µM (active) and the AC50 [16] was 0.261 µM (active). The AC50 [17] was 6.22 µM (active).

In the case of Cc1ccc2nc(Cc3ccc(N)cc3)oc2c1, the IC50 [18] is reported as 49.9 µM (not active), the AC50 (A-375 [19]) is reported as > 35 µM (active) and the AC50 (A-375 [20]) is reported as > 35 µM (active).
